Laboratory results as given in US7507739B2, “6-[(substituted)phenyl]triazolopyrimidines as anticancer agents” (Wyeth, priority 2003, dated 2009).
Marks after values point to notes of the source that are not given here.

How the values were obtained:
[1] = tested on: U87-MG Human Glioblastoma; assay: Human tumor xenograft test, U87-MG; format: in vivo, athymic mice; conditions: U87-MG
Experimental: (§1) The ability of compounds of this invention to inhibit tumor growth in animals is studied in the athymic mouse xenograft standard pharmacological test. Female nu/nu mice in an outbred albino background are obtained from Charles River Laboratories (Wilmington, Mass.). Animals are injected subcutaneously on the flank with the desired tumor cell suspension. Several days later, mice with tumors of approximately 150 mm^3 are selected from those injected (staged) and randomly distributed into groups of 5-10. The day of staging is called day 0. Compounds of the invention, usually formulated in saline (exceptions are noted in tables), are administered to animals by intravenous injection or oral gavage on various schedules starting on day 0 or 1, as noted in the tables. The control group in each experiment is dosed with vehicle on the same schedule. Tumor size is measured every 3-7 days with calipers in two orthogonal dimensions, and tumor volume is calculated from the formula volume=[(length×width^2)/2].
(§2) Tumor/Control (T/C) is obtained by dividing the mean tumor volume of the treated group by the mean tumor volume of the control group on each measurement day. A treatment dose is defined as active if it produced a statistically significant T/C of 0.50 or less. A p value≦0.05, determined by one-side Student's t-test, is required for statistical significance. A treatment dose is defined as toxic if more than 10% of the animals died from a compound-related toxicity.

[2] = tested on: HCT-15 Human Colon Carcinoma; assay: Human tumor xenograft test, HCT-15; format: in vivo, athymic mice; conditions: for T/C on day 0 / T/C on day 7 / T/C on day 13 / T/C on day 20: days 1, 8, 15
Experimental: as §1, §2

[3] = tested on: A549 Human Non-Small Cell Lung Carcinoma; assay: Human tumor xenograft test, A549; format: in vivo, athymic mice; conditions: for T/C on day 0 / T/C on day 7 / T/C on day 14 / T/C on day 21 / T/C on day 27 / T/C on day 35: days 0, 6, 13, 20
Experimental: as §1, §2

[4] = tested on: H157 Human Non-Small Cell Lung Carcinoma; assay: Human tumor xenograft test, H157; format: in vivo, athymic mice; conditions: for T/C on day 0 / T/C on day 7 / T/C on day 11 / T/C on day 14: days 0, 6
Experimental: as §1, §2

[5] = tested on: DLD1 Human Colon Carcinoma; assay: Human tumor xenograft test, DLD1; format: in vivo; conditions: days 1, 5, 9, 13
[6] = tested on: HT-29 Human Colon Carcinoma; assay: Human tumor xenograft test, HT-29; format: in vivo, athymic mice
Experimental: as §1, §2

LOX Human Melanoma = assay: Human tumor xenograft test, LOX; format: in vivo, athymic mice; conditions: for tumor growth inhibition (activity call): LOX melanoma; for T/C on day 0 / T/C on day 7 / T/C on day 13: LOX, days 1, 5, 9, 13
Experimental: as §1, §2

[7] = tested on: LoVo Human Colon Carcinoma; assay: Human tumor xenograft test, LoVo; format: in vivo, athymic mice; conditions: for T/C on day 0 / T/C on day 7 / T/C on day 14 / T/C on day 21 / T/C on day 28 / T/C on day 35: days 1, 7, 14
Experimental: as §1, §2

## CNCCCOc1cc(F)c(-c2c(Cl)nc3ncnn3c2N[C@@H](C)C(F)(F)F)c(F)c1.Cl [Example 2a, 5-Chloro-6-{2,6-difluoro-4-[3-(methylamino)propoxy]phenyl}-N-[(1S)-2,2,2-trifluoro-1-methylethyl][1,2,4]triazolo[1,5-a]pyrimidin-7-amine hydrogen chloride]
[1]; orally single dose on day 0 at 5 or 2.5 mg/kg
  tumor growth inhibition (activity call): not at 5 or 2.5 mg/kg
[1]; orally single dose on day 0 at 30, 20, and 10 mg/kg
  tumor growth inhibition (activity call): inhibited the growth
[2]; HCT-15, 10 mg/kg IV
  T/C on day 0: 1.00
  T/C on day 7: 0.81
  T/C on day 13: 1.03
  T/C on day 20: 0.75
[2]; HCT-15, 20 mg/kg IV
  T/C on day 0: 1.00
  T/C on day 7: 0.86
  T/C on day 13: 0.50*
  T/C on day 20: 0.43*
[2]; HCT-15, 20 mg/kg intravenously on days 1, 8, and 15
  tumor growth inhibition (activity call): active
[2]; HCT-15, 25 mg/kg IV
  T/C on day 0: 1.00
  T/C on day 7: 0.78
  T/C on day 13: 0.60
  T/C on day 20: 0.44
[3]; A549, 15 mg/kg IV
  T/C on day 0: 1.01
  T/C on day 7: 0.75*
  T/C on day 14: 0.61**
  T/C on day 21: 0.83
  T/C on day 27: 0.75
  T/C on day 35: 0.76
[3]; A549, 15 mg/kg intravenously on days 0, 6, 13, and 20
  tumor growth inhibition (activity call): not at 15 mg/kg
[3]; A549, 20 mg/kg IV
  T/C on day 0: 0.97
  T/C on day 7: 0.79
  T/C on day 14: 0.55**
  T/C on day 21: 0.59*
  T/C on day 27: 0.50*
  T/C on day 35: 0.49*
[3]; A549, 25 mg/kg IV
  T/C on day 0: 0.99
  T/C on day 7: 0.72*
  T/C on day 14: 0.51**
  T/C on day 21: 0.57*
  T/C on day 27: 0.48*
  T/C on day 35: 0.44*
[3]; A549, 25 and 20 mg/kg intravenously on days 0, 6, 13, and 20
  tumor growth inhibition (activity call): inhibited the growth
[4]; H157, 7.5 mg/kg IV
  T/C on day 0: 1.04
  T/C on day 7: 0.54**
  T/C on day 11: 0.42**
  T/C on day 14: 0.45**
[4]; H157, 15 mg/kg IV
  T/C on day 0: 1.02
  T/C on day 7: 0.55*
  T/C on day 11: 0.44*
  T/C on day 14: 0.42**
[4]; H157, 25 mg/kg IV
  T/C on day 0: 1.03
  T/C on day 7: 0.62*
  T/C on day 11: 0.29**
  T/C on day 14: 0.30**
[4]; H157 NSCLC, 25, 15 and 7.5 mg/kg intravenously on days 0 and 6
  tumor growth inhibition (activity call): inhibited tumor growth
[5]; DLD1, 10 mg/kg IV
  T/C on day 0: 1.00
  T/C on day 7: 0.66
  T/C on day 14: 0.65
  T/C on day 21: 0.72
[5]; DLD1, 15 mg/kg IV
  T/C on day 0: 1.00
  T/C on day 7: 0.59
  T/C on day 14: 0.54
  T/C on day 21: 0.74
[5]; DLD1, 20 mg/kg IV
  T/C on day 0: 1.00
  T/C on day 7: 0.46*
  T/C on day 14: 0.33
  T/C on day 21: 0.53
[6]; HT-29, 25 mg/kg IV, days 1, 7
  T/C on day 0: 1.00
  T/C on day 7: 0.44**
  T/C on day 10: 0.34**
  T/C on day 13: 0.26**
  T/C on day 21: 0.43**
  T/C on day 24: 0.46**
[6]; HT-29, 25 mg/kg intravenously on days 1 and 7
  tumor growth inhibition (activity call): inhibited the growth
LOX Human Melanoma; 1 mg/kg intravenously on days 1, 5, 9, and 13
  tumor growth inhibition (activity call): not at 1 mg/kg
LOX Human Melanoma; 6 and 3 mg/kg intravenously on days 1, 5, 9, and 13
  tumor growth inhibition (activity call): active
LOX Human Melanoma; 1 mg/kg IV
  T/C on day 0: 1.00
  T/C on day 7: 0.81
  T/C on day 13: 0.95
LOX Human Melanoma; 3 mg/kg IV
  T/C on day 0: 1.00
  T/C on day 7: 0.31**
  T/C on day 13: 0.36
LOX Human Melanoma; 6 mg/kg IV
  T/C on day 0: 1.00
  T/C on day 7: 0.17**
  T/C on day 13: 0.12**

## CNCCCOc1cc(F)c(-c2c(Cl)nc3ncnn3c2C2CCCCCC2)c(F)c1.O=C(O)C(F)(F)F [Example 32, 3-[4-(5-Chloro-7-cycloheptyl[1,2,4]triazolo[1,5-a]pyrimidin-6-yl)-3,5-difluorophenoxy]-N-methylpropan-1-amine trifluoroacetic acid salt]
[7]; 30 mg/kg PO
  T/C on day 0: 1.00
  T/C on day 7: 0.55
  T/C on day 14: 0.68
  T/C on day 21: 0.35
  T/C on day 28: 0.43
  T/C on day 35: 0.53
[7]; 50 mg/kg PO
  T/C on day 0: 1.00
  T/C on day 7: 0.41
  T/C on day 14: 0.44*
  T/C on day 21: 0.27*
  T/C on day 28: 0.31
  T/C on day 35: 0.26
[7]; orally on days 1, 7 and 14 at 50 mg/kg
  tumor growth inhibition (activity call): active
